In the experiment the target is human PCSK9 (Homo sapiens, UniProt Q8NBP7). Description: PCSK9 ligand binding TR-FRET assay (interference with binding of human PCSK9 to human LDLR). The settings on record: for Max % inhibition: PCSK9 FRET assay, efficacy (Amax), 100% = 1 uM unlabeled human PCSK9, 0% = DMSO; for IC50: TR-FRET, human PCSK9 Alexa Fluor 647 / human LDLR extracellular domain-Europium Kryptate, read-out: PCSK9 FRET Assay IC50. The essentials: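 Threefold compound dilutions were pre-incubated 30 min with PCSK9, after which 4 nM Europium Kryptate-tagged human LDLR ectodomain was added for a further 2 h.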
Sequence of human PCSK9 (Q8NBP7 153-692): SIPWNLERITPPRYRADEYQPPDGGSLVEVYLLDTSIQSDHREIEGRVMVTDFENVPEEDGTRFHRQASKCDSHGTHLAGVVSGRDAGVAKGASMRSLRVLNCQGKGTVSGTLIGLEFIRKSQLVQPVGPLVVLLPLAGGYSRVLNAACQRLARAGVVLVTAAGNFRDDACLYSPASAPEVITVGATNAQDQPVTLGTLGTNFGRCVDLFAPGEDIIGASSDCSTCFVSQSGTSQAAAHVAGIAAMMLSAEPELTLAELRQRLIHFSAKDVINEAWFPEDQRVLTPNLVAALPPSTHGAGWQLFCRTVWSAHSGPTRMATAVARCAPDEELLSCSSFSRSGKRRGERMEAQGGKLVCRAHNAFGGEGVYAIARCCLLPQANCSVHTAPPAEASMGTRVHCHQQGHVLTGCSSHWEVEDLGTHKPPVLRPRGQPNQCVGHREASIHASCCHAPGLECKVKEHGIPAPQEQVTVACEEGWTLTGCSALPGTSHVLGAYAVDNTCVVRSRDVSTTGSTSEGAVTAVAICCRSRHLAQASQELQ
Sequence of human PCSK9 (Q8NBP7 31-152 partner limits assumed): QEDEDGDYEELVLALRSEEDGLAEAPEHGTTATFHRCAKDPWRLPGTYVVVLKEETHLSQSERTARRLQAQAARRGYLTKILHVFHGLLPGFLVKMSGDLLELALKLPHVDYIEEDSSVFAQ
A general note: Time-resolved FRET reads energy transfer from a long-lived donor to a nearby acceptor.

Broadly, the IC50 is the point on the concentration scale where inhibition reaches its midpoint. `COC[C@@H]1NC(=O)[C@H](C)N(Cc2ccc(Cl)cc2Oc2ccc(-c3cnc(C4=CCOCC4)n3C)cc2)C(=O)C[C@@H](Cc2ccccc2)C(=O)N(C)[C@@H](C)CNC(=O)C[C@H](Cc2ccc(Cl)cc2)N(C)C1=O` [Compound 271, (2S,5S,8S,13S,16R)-16-benzyl-1-(4-chloro-2-(4-(2-(3,6-dihydro-2H-pyran-4-yl)-1-methyl-1H-imidazol-5-yl)phenoxy)benzyl)-8-(4-chlorobenzyl)-5-(methoxymethyl)-2,7,13,14-tetramethyl-1,4,7,11,14-pentaazacyclooctadecane-3,6,10,15,18-pentaone]: the Max % inhibition is reported as 84.13% and the IC50 turned out to be 6.9 nM.

In the case of `COC[C@@H]1NC(=O)[C@H](CCCN2CCOCC2)N(Cc2ccc(Cl)cc2Oc2ccc(-c3cnc(CN(C)C)n3C)cc2)C(=O)C[C@@H](Cc2ccccc2)C(=O)N(C)[C@H]2CCCC[C@@H]2NC(=O)C[C@H](Cc2ccc(Cl)cc2)N(C)C1=O` [Compound 272, (4S,7S,10S,14R,16aS,20aS)-14-benzyl-11-(4-chloro-2-(4-(2-((dimethylamino)methyl)-1-methyl-1H-imidazol-5-yl)phenoxy)benzyl)-4-(4-chlorobenzyl)-7-(methoxymethyl)-5,16-dimethyl-10-(3-morpholinopropyl)hexadecahydrobenzo[l][1,4,7,11,14]pentaazacyclooctadecine-2,6,9,12,15(3H)-pentaone], the Max % inhibition turned out to be 98.30% and the IC50 came to 1.2 nM.

In the case of `COC[C@@H]1NC(=O)[C@H](C)N(Cc2ccc(Cl)cc2Oc2ccc(-c3cnc(CN(C)C)n3C)cn2)C(=O)C[C@@H](Cc2ccccc2)C(=O)N(C)[C@H]2CCCC[C@@H]2NC(=O)C[C@H](Cc2ccc(Cl)cc2)N(C)C1=O` [Compound 273, (4S,7S,10S,14R,16aS,20aS)-14-benzyl-11-(4-chloro-2-((5-(2-((dimethylamino)methyl)-1-methyl-1H-imidazol-5-yl)pyridin-2-yl)oxy)benzyl)-4-(4-chlorobenzyl)-7-(methoxymethyl)-5,10,16-trimethylhexadecahydrobenzo[l][1,4,7,11,14]pentaazacyclooctadecine-2,6,9,12,15(3H)-pentaone], the Max % inhibition came to 105.53% and the IC50 was 3 nM.

Turning to `COC[C@@H]1NC(=O)[C@H](C)N(Cc2ccc(Cl)cc2Oc2ccc(-c3cnc(CN(C)C)n3C)cc2)C(=O)CC(Cn2ccccc2=O)C(=O)N(C)[C@H]2CCCC[C@@H]2NC(=O)C[C@H](Cc2ccc(Cl)cc2)N(C)C1=O` (stereo partly drawn) [Compound 275, (4S,7S,10S,16aS,20aS)-11-(4-chloro-2-(4-(2-((dimethylamino)methyl)-1-methyl-1H-imidazol-5-yl)phenoxy)benzyl)-4-(4-chlorobenzyl)-7-(methoxymethyl)-5,10,16-trimethyl-14-((2-oxopyridin-1(2H)-yl)methyl)hexadecahydrobenzo[l][1,4,7,11,14]pentaazacyclooctadecine-2,6,9,12,15(3H)-pentaone], the Max % inhibition was determined as 102.47% and the IC50 worked out at 0.8 nM.

`COC[C@@H]1NC(=O)[C@H](C)N(Cc2ccc(Cl)cc2Oc2ccc(-c3cnc(CN(C)C)n3C)cc2)C(=O)CC(Cn2ccccc2=O)C(=O)N(C)[C@H]2CCCC[C@@H]2NC(=O)C[C@H](Cc2ccc(Cl)cc2)N(C)C1=O` (stereo partly drawn) [Compound 276, (4S,7S,10S,16aS,20aS)-11-(4-chloro-2-(4-(2-((dimethylamino)methyl)-1-methyl-1H-imidazol-5-yl)phenoxy)benzyl)-4-(4-chlorobenzyl)-7-(methoxymethyl)-5,10,16-trimethyl-14-((2-oxopyridin-1(2H)-yl)methyl)hexadecahydrobenzo[l][1,4,7,11,14]pentaazacyclooctadecine-2,6,9,12,15(3H)-pentaone]: the Max % inhibition is on record as 101.53% and the IC50 was determined as 16.4 nM.

Take `C=CC[C@@H]1CC(=O)N(Cc2ccc(Cl)cc2Oc2ccc(-c3cnc(CN(C)C)n3C)cc2)[C@@H](CCCN2CCOCC2)C(=O)N[C@@H](COC)C(=O)N(C)[C@@H](Cc2ccc(Cl)cc2)CC(=O)N[C@H]2CCCC[C@@H]2N(C)C1=O` [Compound 277, (4S,7S,10S,14R,16aS,20aS)-14-allyl-11-(4-chloro-2-(4-(2-((dimethylamino)methyl)-1-methyl-1H-imidazol-5-yl)phenoxy)benzyl)-4-(4-chlorobenzyl)-7-(methoxymethyl)-5,16-dimethyl-10-(3-morpholinopropyl)hexadecahydrobenzo[l][1,4,7,11,14]pentaazacyclooctadecine-2,6,9,12,15(3H)-pentaone]: the Max % inhibition is listed as 83.22% and the IC50 came to 2.5 nM.

Regarding `Cc1c(CN(C)C)ncn1-c1ccc(Oc2cc(Cl)ccc2CN2C(=O)C[C@@H](Cc3ccccc3)C(=O)N(C)[C@H]3CCCC[C@@H]3NC(=O)C[C@H](Cc3ccc(Cl)cc3)N(C)C(=O)[C@H](CO)NC(=O)[C@@H]2C)cc1` [Compound 278, (4S,7S,10S,14R,16aS,20aS)-14-benzyl-11-(4-chloro-2-(4-(4-((dimethylamino)methyl)-5-methyl-1H-imidazol-1-yl)phenoxy)benzyl)-4-(4-chlorobenzyl)-7-(hydroxymethyl)-5,10,16-trimethylhexadecahydrobenzo[l][1,4,7,11,14]pentaazacyclooctadecine-2,6,9,12,15(3H)-pentaone], the Max % inhibition is reported as 107.17% and the IC50 is 1.3 nM.

For `COC[C@@H]1NC(=O)[C@H](C)N(Cc2ccc(Cl)cc2Oc2ccc(-c3cnc(CN(C)C)n3C)cc2)C(=O)C[C@@H](Cc2cccnc2)C(=O)N(C)[C@H]2CCCC[C@@H]2NC(=O)C[C@H](Cc2ccc(Cl)cc2)N(C)C1=O` [Compound 280, (4S,7S,10S,14R,16aS,20aS)-11-(4-chloro-2-(4-(2-((dimethylamino)methyl)-1-methyl-1H-imidazol-5-yl)phenoxy)benzyl)-4-(4-chlorobenzyl)-7-(methoxymethyl)-5,10,16-trimethyl-14-(pyridin-3-ylmethyl)hexadecahydrobenzo[l][1,4,7,11,14]pentaazacyclooctadecine-2,6,9,12,15(3H)-pentaone], the Max % inhibition was determined as 100.09% and the IC50 worked out at 0.6 nM.

As to `COC[C@@H]1NC(=O)[C@H](C)N(Cc2ccc(Cl)cc2Oc2ccc(-c3cnc(CN4CCCC4)n3C)c(C)c2)C(=O)C[C@@H](Cc2ccccc2)C(=O)N(C)[C@@H](C)CNC(=O)C[C@H](Cc2ccc(Cl)cc2)N(C)C1=O` [Compound 281, (2S,5S,8S,13S,16R)-16-benzyl-1-(4-chloro-2-(3-methyl-4-(1-methyl-2-(pyrrolidin-1-ylmethyl)-1H-imidazol-5-yl)phenoxy)benzyl)-8-(4-chlorobenzyl)-5-(methoxymethyl)-2,7,13,14-tetramethyl-1,4,7,11,14-pentaazacyclooctadecane-3,6,10,15,18-pentaone], the Max % inhibition came out at 89.62% and the IC50 was 1 nM.

Take `C=Cc1ncc(-c2ccc(Oc3cc(Cl)ccc3CN3C(=O)C[C@@H](Cc4ccccc4)C(=O)N(C)[C@@H](C)CNC(=O)C[C@H](Cc4ccc(Cl)cc4)N(C)C(=O)[C@H](COC)NC(=O)[C@@H]3C)cc2)n1C` [Compound 282, (2S,5S,8S,13S,16R)-16-benzyl-1-(4-chloro-2-(4-(1-methyl-2-vinyl-1H-imidazol-5-yl)phenoxy)benzyl)-8-(4-chlorobenzyl)-5-(methoxymethyl)-2,7,13,14-tetramethyl-1,4,7,11,14-pentaazacyclooctadecane-3,6,10,15,18-pentaone]: the Max % inhibition stood at 60.78% and the IC50 was determined as 6.1 nM.

For `COC[C@@H]1NC(=O)[C@H](CCCN2CCOCC2)N(Cc2ccc(Cl)cc2Oc2ccc(-c3cnc(CN(C)C)n3C)cc2)C(=O)C[C@@H](Cc2ccccc2)C(=O)N(C)[C@@H](C)[C@H](C)NC(=O)C[C@H](Cc2ccc(Cl)cc2)N(C)C1=O` [Compound 283, (2S,5S,8S,12S,13S,16R)-16-benzyl-1-(4-chloro-2-(4-(2-((dimethylamino)methyl)-1-methyl-1H-imidazol-5-yl)phenoxy)benzyl)-8-(4-chlorobenzyl)-5-(methoxymethyl)-7,12,13,14-tetramethyl-2-(3-morpholinopropyl)-1,4,7,11,14-pentaazacyclooctadecane-3,6,10,15,18-pentaone], the Max % inhibition was 105.87% and the IC50 is 1.6 nM.

Consider `COC[C@@H]1NC(=O)[C@H](C)N(Cc2ccc(Cl)cc2Oc2ccc(-c3cnc(CN(C)C)n3C)cc2)C(=O)C[C@@H](Cc2ccccn2)C(=O)N(C)[C@H]2CCCC[C@@H]2NC(=O)C[C@H](Cc2ccc(Cl)cc2)N(C)C1=O` [Compound 284, (4S,7S,10S,14R,16aS,20aS)-11-(4-chloro-2-(4-(2-((dimethylamino)methyl)-1-methyl-1H-imidazol-5-yl)phenoxy)benzyl)-4-(4-chlorobenzyl)-7-(methoxymethyl)-5,10,16-trimethyl-14-(pyridin-2-ylmethyl)hexadecahydrobenzo[l][1,4,7,11,14]pentaazacyclooctadecine-2,6,9,12,15(3H)-pentaone], for which the Max % inhibition turned out to be 98.50% and the IC50 was 0.9 nM.

For the compound `COC[C@@H]1NC(=O)[C@H](CCCN(C)C)N(Cc2ccc(Cl)cc2Oc2ccc(-c3cnc(CN4CCCC4)n3C)cc2)C(=O)C[C@@H](Cc2ccccc2)C(=O)N(C)[C@H]2CCCC[C@@H]2NC(=O)C[C@H](Cc2ccc(Cl)cc2)N(C)C1=O` [Compound 285, (4S,7S,10S,14R,16aS,20aS)-14-benzyl-11-(4-chloro-2-(4-(1-methyl-2-(pyrrolidin-1-ylmethyl)-1H-imidazol-5-yl)phenoxy)benzyl)-4-(4-chlorobenzyl)-10-(3-(dimethylamino)propyl)-7-(methoxymethyl)-5,16-dimethylhexadecahydrobenzo[l][1,4,7,11,14]pentaazacyclooctadecine-2,6,9,12,15(3H)-pentaone], the Max % inhibition is 90.24% and the half-inhibitory concentration (IC50) was found to be 2.1 nM.

The values are drawn from patent US20230089867A1, “CYCLIC PENTAMER COMPOUNDS AS PROPROTEIN CONVERTASE SUBTILISIN/KEXIN TYPE 9 (PCSK9) INHIBITORS FOR THE TREATMENT OF METABOLIC DISORDER” (Novartis AG, priority 2018, published 2023).
